Laboratory results as given in PubChem BioAssay AID292 (DTP/NCI, 2004).
Values joined by “and” are separate entries in the source; they are usually repeats but may differ in a detail not shown here. Equal entries are not always repeated. Toxic doses and inconclusive results are not listed. How the source made its calls: active means survival T/C of 150% or more; inactive means T/C below 125% in these data.

System: B6C3F1 mice, ip Sarcoma M5076, median survival T/C
Test: NCI In Vivo Anticancer Drug Screen. Data for tumor model Sarcoma M5076 (intraperitoneal) in B6C3F1 mice
Settings: endpoint: median survival time, higher = longer survival
Summary of the method: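 Transplantable tumour in mice; compound-treated vs vehicle-treated groups. Read-out: survival. Value = treated/control ratio.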

Measured: T/C

COc1ccc(Cl)c2c1[nH]c1nc3nc4cc(Cl)ccc4n3nc12
inactive: dose: 75.0 mg/kg/injection, schedule: Q04DX004 (ip), vehicle: saline with Tween-80 91 % of control | dose: 150.0 mg/kg/injection, schedule: Q04DX004 (ip), vehicle: saline with Tween-80 90 % of control

COc1cc2c(c3c1c(=O)c1ccccc1n3C)C=C([N+](=O)[O-])C(C)(C)O2
inactive: dose: 25.0 mg/kg/injection, schedule: Q04DX004 (ip), vehicle: saline + Tween-80 + alcohol 104 % of control | dose: 50.0 mg/kg/injection, schedule: Q04DX004 (ip), vehicle: saline + Tween-80 + alcohol 90 % of control

Cc1nc(N)nc(N)c1-c1ccc(Cl)c(Cl)c1
inactive: dose: 1.25 mg/kg/injection, schedule: Q04DX004 (ip), vehicle: saline 105 % of control | dose: 2.5 mg/kg/injection, schedule: Q04DX004 (ip), vehicle: saline 100 % of control | dose: 5.0 mg/kg/injection, schedule: Q04DX004 (ip), vehicle: saline 102 % of control | dose: 10.0 mg/kg/injection, schedule: Q04DX004 (ip), vehicle: saline 113 % of control

O=CC(NC(=O)N(CCCl)N=O)C(O)C(O)C(O)CO (stereo not given)
active: dose: 1.25 mg/kg/injection, schedule: Q04DX005 (ip), vehicle: saline 319 % of control | dose: 2.5 mg/kg/injection, schedule: Q04DX005 (ip), vehicle: saline 319 % of control | dose: 5.0 mg/kg/injection, schedule: Q04DX005 (ip), vehicle: saline 319 % of control | dose: 10.0 mg/kg/injection, schedule: Q04DX005 (ip), vehicle: saline 319 % of control

Cc1nnc2c3nccnc3c(Cl)nn12
inactive: dose: 15.0 mg/kg/injection, schedule: Q04DX004 (ip), vehicle: saline with Tween-80 102 % of control | dose: 30.0 mg/kg/injection, schedule: Q04DX004 (ip), vehicle: saline with Tween-80 98 % of control | dose: 60.0 mg/kg/injection, schedule: Q04DX004 (ip), vehicle: saline with Tween-80 101 % of control | dose: 120.0 mg/kg/injection, schedule: Q04DX004 (ip), vehicle: saline with Tween-80 108 % of control

Nc1nncs1
inactive: dose: 100.0 mg/kg/injection, schedule: Q04DX004 (ip), vehicle: saline with Tween-80 111 % of control | dose: 100.0 mg/kg/injection, schedule: Q04DX005 (ip), vehicle: saline with Tween-80 112 % of control | dose: 100.0 mg/kg/injection, schedule: Q04DX005 (ip), vehicle: saline 114 % of control and 116 % of control | dose: 200.0 mg/kg/injection, schedule: Q04DX004 (ip), vehicle: saline with Tween-80 112 % of control | dose: 200.0 mg/kg/injection, schedule: Q04DX005 (ip), vehicle: saline with Tween-80 112 % of control | dose: 200.0 mg/kg/injection, schedule: Q04DX005 (ip), vehicle: saline 109 % of control and 121 % of control | dose: 400.0 mg/kg/injection, schedule: Q04DX004 (ip), vehicle: saline with Tween-80 121 % of control | dose: 400.0 mg/kg/injection, schedule: Q04DX005 (ip), vehicle: saline 95 % of control
active: dose: 800.0 mg/kg/injection, schedule: Q04DX005 (ip), vehicle: saline 151 % of control

CC1=C(N2CCOCC2)C(N2CCOCC2)=C(C)C(=O)C1=O
inactive: dose: 50.0 mg/kg/injection, schedule: Q04DX004 (ip), vehicle: Klucel (hydroxypropylcellulose) (HPC) 104 % of control | dose: 100.0 mg/kg/injection, schedule: Q04DX004 (ip), vehicle: Klucel (hydroxypropylcellulose) (HPC) 100 % of control | dose: 200.0 mg/kg/injection, schedule: Q04DX004 (ip), vehicle: Klucel (hydroxypropylcellulose) (HPC) 100 % of control | dose: 400.0 mg/kg/injection, schedule: Q04DX004 (ip), vehicle: Klucel (hydroxypropylcellulose) (HPC) 113 % of control | dose: 800.0 mg/kg/injection, schedule: Q04DX004 (ip), vehicle: Klucel (hydroxypropylcellulose) (HPC) 95 % of control

CS(=O)(=O)CS(=O)(=O)OCCF
active: dose: 12.5 mg/kg/injection, schedule: Q04DX004 (ip), vehicle: saline 152 % of control | dose: 18.0 mg/kg/injection, schedule: Q04DX004 (ip), vehicle: saline 176 % of control | dose: 25.0 mg/kg/injection, schedule: Q04DX004 (ip), vehicle: saline 189 % of control and 240 % of control | dose: 30.0 mg/kg/injection, schedule: Q04DX004 (ip), vehicle: saline 244 % of control | dose: 50.0 mg/kg/injection, schedule: Q04DX004 (ip), vehicle: saline 234 % of control and 262 % of control

COc1ccc(-n2[nH]c3c(cnc4ccccc43)c2=O)cc1
inactive: dose: 2.25 mg/kg/injection, schedule: Q04DX004 (ip), vehicle: saline with Tween-80 93 % of control | dose: 4.5 mg/kg/injection, schedule: Q04DX004 (ip), vehicle: saline with Tween-80 95 % of control | dose: 9.0 mg/kg/injection, schedule: Q04DX004 (ip), vehicle: saline with Tween-80 94 % of control | dose: 18.0 mg/kg/injection, schedule: Q04DX004 (ip), vehicle: saline with Tween-80 89 % of control | dose: 36.0 mg/kg/injection, schedule: Q04DX004 (ip), vehicle: saline with Tween-80 92 % of control
